Calls of active or inactive are those of the source.
What was measured:
[1] = molecular target: Intestinal-type alkaline phosphatase (Mus musculus, UniProt P24822); assay: PubChem AID 488875; assay type: functional
[2] = molecular target: T1, Intestinal-type alkaline phosphatase (Homo sapiens, UniProt P09923); assay: activation of human intestinal alkaline phosphatase – biochemical, luminescent, uHTS hits, set 2, dose response (AID 488817); assay type: functional;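 further: potency of activators that raise enzyme activity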
T1 sequence (P09923 whole entry): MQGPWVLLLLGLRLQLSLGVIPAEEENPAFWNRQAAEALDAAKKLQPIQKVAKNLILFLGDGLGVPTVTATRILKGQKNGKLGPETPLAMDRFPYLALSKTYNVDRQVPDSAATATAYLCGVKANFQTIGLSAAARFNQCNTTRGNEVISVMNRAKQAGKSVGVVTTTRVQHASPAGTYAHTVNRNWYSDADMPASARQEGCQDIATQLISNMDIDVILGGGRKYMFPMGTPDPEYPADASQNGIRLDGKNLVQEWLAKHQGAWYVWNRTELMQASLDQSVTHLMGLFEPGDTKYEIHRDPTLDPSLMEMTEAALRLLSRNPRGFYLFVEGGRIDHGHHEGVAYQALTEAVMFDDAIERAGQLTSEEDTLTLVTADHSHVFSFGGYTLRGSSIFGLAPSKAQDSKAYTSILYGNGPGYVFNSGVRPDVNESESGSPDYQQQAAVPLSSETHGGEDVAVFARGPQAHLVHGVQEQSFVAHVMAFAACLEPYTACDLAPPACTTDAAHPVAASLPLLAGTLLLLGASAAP

[3] = molecular target: T1, Intestinal-type alkaline phosphatase; assay: human intestinal alkaline phosphatase activators, dose response, biochemical, luminescence, uHTS hits (AID 463120); assay type: functional
[4] = molecular target: T2, Alkaline phosphatase, tissue-nonspecific isozyme (Homo sapiens, UniProt P05186); assay: activation of tissue-nonspecific alkaline phosphatase – biochemical, TNAP isozyme, human IAP uHTS hits, selectivity assay for human IAP activator project, dose response (AID 488886); assay type: functional;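 further: potency of compounds raising TNAP activity as a selectivity check on IAP activators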
T2 sequence (P05186 whole entry): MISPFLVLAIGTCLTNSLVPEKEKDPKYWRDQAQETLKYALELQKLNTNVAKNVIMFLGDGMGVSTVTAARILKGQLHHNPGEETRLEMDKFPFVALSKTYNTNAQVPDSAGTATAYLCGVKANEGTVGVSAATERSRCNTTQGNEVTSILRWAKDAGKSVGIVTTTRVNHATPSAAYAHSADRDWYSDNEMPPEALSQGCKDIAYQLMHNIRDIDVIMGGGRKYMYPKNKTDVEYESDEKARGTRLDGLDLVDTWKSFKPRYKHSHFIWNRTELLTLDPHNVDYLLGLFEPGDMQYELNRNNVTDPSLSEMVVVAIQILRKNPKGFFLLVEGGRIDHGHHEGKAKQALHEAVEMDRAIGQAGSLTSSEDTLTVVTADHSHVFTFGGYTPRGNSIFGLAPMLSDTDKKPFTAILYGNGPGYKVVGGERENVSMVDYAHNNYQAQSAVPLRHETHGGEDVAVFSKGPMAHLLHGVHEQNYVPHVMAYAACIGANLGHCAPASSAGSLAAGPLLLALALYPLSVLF

[5] = molecular target: T3, Tyrosine-protein phosphatase non-receptor type 22 (Homo sapiens, UniProt Q9Y2R2); assay type: functional
T3 sequence (Q9Y2R2 whole entry): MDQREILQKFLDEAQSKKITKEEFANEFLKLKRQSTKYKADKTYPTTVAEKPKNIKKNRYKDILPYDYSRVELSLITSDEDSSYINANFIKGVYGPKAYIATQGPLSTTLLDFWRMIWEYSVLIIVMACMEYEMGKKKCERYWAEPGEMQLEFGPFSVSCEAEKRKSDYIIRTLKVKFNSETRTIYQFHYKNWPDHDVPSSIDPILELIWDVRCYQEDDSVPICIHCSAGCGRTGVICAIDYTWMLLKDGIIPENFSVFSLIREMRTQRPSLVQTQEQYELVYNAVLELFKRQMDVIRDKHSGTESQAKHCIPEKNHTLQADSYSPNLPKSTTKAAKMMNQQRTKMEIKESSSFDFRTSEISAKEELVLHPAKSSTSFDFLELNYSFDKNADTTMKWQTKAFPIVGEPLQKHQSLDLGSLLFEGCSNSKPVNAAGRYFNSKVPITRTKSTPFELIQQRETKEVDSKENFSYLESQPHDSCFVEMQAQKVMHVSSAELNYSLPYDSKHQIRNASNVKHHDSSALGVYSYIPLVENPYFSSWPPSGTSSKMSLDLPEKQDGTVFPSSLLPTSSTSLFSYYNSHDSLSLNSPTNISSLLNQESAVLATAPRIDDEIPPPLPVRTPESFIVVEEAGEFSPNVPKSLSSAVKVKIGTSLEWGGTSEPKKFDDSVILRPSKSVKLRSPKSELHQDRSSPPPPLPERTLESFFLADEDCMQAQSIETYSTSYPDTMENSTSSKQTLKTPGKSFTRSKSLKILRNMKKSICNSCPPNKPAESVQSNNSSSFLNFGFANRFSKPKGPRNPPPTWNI

[6] = molecular target: T3, Tyrosine-protein phosphatase non-receptor type 22; assay type: functional; remark: listed apart in the source
[7] = molecular target: T4, Tyrosine-protein phosphatase non-receptor type 7 (Homo sapiens, UniProt P35236); assay type: functional
T4 sequence (P35236 whole entry): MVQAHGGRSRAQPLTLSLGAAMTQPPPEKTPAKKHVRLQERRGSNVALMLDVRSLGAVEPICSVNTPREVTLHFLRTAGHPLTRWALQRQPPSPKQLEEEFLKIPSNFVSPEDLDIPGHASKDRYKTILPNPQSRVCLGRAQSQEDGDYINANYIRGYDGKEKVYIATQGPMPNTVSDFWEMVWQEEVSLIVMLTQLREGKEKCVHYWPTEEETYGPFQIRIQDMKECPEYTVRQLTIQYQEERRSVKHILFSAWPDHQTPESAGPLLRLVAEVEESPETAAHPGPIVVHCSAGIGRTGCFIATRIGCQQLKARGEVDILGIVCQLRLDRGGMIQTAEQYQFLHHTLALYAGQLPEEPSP

BJ [8] = assay: BJ-TERT-LT-ST fibroblast viability loss – cell-based, RAS-independent, luminescence, dose response (AID 1935); assay type: functional; settings: Homo sapiens;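 further: BJ fibroblasts immortalized with TERT plus LT and ST oncogenes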
[9] = molecular target: T5, Microphthalmia-associated transcription factor (Homo sapiens, UniProt O75030); assay: reducers of TRPM1 reporter luminescence, concentration series – cell-based, SK-MEL-5, cherry-picked, set 3, MITF inhibitor project, dose response (AID 493073); assay type: functional;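 further: SK-MEL-5 melanoma cells with luciferase driven by the MITF target TRPM1 promoter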
T5 sequence (O75030 whole entry): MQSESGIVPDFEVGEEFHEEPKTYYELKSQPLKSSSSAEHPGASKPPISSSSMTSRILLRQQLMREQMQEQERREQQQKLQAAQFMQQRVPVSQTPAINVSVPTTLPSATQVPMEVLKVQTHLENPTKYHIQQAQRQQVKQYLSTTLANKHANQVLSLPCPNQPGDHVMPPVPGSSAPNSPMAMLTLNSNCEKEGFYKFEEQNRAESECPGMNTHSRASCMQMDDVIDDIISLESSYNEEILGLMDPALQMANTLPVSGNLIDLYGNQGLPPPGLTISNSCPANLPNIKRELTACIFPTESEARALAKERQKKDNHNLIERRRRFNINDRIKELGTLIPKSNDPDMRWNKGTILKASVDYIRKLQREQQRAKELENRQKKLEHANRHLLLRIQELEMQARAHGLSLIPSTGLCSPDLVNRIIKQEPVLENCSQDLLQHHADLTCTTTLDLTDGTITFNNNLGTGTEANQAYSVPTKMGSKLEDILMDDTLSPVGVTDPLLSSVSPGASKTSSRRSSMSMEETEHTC

BJ [10] = assay: BJ-TERT fibroblast viability loss – cell-based, RAS-independent, luminescence, dose response (AID 1933); assay type: functional; settings: Homo sapiens
HEK293 [11] = assay: inhibition of NOD1-driven NF-kB reporter – cell-based, luminescence, uHTS, primary screen (AID 1578); assay type: functional; settings: Homo sapiens
HEK293 [12] = assay: cells; assay type: functional, cell-based; settings: Homo sapiens
HEK293 [13] = assay: cells; assay type: functional, cell-based; settings: Homo sapiens; remark: listed apart in the source
BJ [14] = assay: cells; assay type: functional, cell-based; settings: Homo sapiens
HEK293 [15] = assay: NOD2 signaling inhibitors in MDP-stimulated cells, cell-based, uHTS, luminescence (AID 2001); assay type: functional; settings: Homo sapiens
[16] = Luminescence Cell-Based Dose Retest to Confirm Inhibitors of Cancer Stem Cells. [Related pubchem assays (depositor defined):AID2717, AID2721]; assay type: functional; settings: Homo sapiens
[17] = DRD fibroblast viability loss – cell-based, non-viral oncogenic, luminescence, dose response (AID 1934); assay type: functional; settings: Homo sapiens
[18] = molecular target: G-protein coupled receptor 55 (Homo sapiens, UniProt Q9Y2T6); assay: selective activators of receptor GPR55 – imaging, U2OS cells, beta-arrestin-GFP redistribution, primary screen (AID 1961); assay type: functional
Sequence of G-protein coupled receptor 55 (Q9Y2T6 whole entry, the tested form may be a part): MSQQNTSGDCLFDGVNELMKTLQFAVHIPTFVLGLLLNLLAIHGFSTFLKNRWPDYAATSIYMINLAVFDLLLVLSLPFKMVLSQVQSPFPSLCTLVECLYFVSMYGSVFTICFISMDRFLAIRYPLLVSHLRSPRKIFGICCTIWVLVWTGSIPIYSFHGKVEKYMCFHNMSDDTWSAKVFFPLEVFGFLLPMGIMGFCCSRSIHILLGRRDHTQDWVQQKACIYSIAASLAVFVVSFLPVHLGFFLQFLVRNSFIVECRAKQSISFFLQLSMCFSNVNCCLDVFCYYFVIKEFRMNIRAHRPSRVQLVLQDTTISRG

[19] = molecular target: Nucleotide-binding oligomerization domain-containing protein 2 (Homo sapiens, UniProt Q9HC29); assay: inhibition of NOD2-driven NF-kB reporter – cell-based, luminescence, uHTS, HEK293 (AID 1566); assay type: functional
Sequence of Nucleotide-binding oligomerization domain-containing protein 2 (Q9HC29 whole entry, the tested form may be a part): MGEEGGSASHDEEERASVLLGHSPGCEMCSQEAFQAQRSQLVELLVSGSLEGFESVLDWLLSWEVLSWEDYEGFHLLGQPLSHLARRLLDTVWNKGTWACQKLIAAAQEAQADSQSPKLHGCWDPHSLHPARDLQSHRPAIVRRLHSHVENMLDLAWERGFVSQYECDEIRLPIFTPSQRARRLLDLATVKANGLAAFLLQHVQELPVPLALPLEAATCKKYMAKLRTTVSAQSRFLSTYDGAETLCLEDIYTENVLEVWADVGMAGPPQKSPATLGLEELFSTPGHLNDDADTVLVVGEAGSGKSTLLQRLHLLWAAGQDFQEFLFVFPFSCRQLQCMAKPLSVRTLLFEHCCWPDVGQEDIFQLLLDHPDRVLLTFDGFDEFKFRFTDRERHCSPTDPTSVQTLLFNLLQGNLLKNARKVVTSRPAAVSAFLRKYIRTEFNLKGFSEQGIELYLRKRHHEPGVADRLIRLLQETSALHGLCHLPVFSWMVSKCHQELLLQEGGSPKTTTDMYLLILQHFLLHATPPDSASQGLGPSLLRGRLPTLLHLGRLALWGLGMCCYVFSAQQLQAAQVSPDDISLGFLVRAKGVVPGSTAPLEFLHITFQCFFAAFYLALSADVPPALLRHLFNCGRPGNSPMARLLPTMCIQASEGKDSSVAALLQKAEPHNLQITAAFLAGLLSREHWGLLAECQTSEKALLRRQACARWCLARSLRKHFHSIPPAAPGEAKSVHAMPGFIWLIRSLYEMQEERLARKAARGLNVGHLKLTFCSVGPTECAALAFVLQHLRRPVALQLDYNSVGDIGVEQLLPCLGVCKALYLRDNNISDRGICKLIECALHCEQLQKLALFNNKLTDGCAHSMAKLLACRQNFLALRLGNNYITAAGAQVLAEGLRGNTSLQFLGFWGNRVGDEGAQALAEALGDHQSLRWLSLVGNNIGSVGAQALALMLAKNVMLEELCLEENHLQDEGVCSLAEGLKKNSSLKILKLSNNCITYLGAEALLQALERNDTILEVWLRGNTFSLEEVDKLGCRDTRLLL

HEK293 [20] = assay: cells; assay type: functional, cell-based; settings: Homo sapiens; remark: listed apart in the source
[21] = microbe, parasite or virus in culture; assay type: functional; settings: Mycobacterium tuberculosis
[22] = THP-1 cell cytotoxicity, dose response, cytotoxicity control for non-replicating M. tuberculosis project (AID 489025); assay type: functional
[23] = NIH3T3 cell viability loss – ATP luminescence, mouse fibroblasts, counter-screen, dose response (AID 2010); assay type: functional, cell-based;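 further: cells exposed to compound for about 90 hours before reading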
Steroidogenic factor 1 = Steroidogenic factor 1 (Homo sapiens, UniProt Q13285); assay: Counterscreen for inverse agonists of the liver receptor homolog-1 (LRH-1; NR5A2): Luminescence-based cell-based high throughput dose response assay to identify inverse agonists of the Steroidogenic Factor 1 Nuclear Receptor (SF1; NR5A1).; assay type: functional
Sequence of Steroidogenic factor 1 (Q13285 whole entry): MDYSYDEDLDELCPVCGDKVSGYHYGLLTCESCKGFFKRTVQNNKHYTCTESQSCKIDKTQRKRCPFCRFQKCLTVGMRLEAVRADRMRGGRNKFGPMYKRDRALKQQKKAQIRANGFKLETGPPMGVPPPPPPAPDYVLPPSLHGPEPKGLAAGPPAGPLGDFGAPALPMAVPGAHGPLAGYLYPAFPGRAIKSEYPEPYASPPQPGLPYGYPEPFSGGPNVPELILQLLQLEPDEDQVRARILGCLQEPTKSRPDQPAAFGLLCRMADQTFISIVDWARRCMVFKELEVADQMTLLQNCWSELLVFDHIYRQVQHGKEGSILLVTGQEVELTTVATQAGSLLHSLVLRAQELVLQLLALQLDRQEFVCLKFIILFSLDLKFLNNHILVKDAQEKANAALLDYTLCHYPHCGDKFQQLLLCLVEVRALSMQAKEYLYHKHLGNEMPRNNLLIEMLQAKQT

cells [24] = assay type: functional
[25] = nonselective StAR promoter luciferase inhibitors – cell-based, luminescence, luciferase reporter, counter-screen for LRH-1 inverse agonist project, dose response (AID 651969); assay type: functional
[26] = Trypanosoma cruzi growth suppression in host cells – NIH3T3 host cells, beta-gal luminescence, confirmation (AID 2044); assay type: functional, cell-based;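 further: intracellular parasites grown in NIH/3T3 mouse fibroblasts as host cells; luminescent beta-galactosidase reporter signal from transgenic T. cruzi replicating inside host cells; inhibitors lower the luminescence signal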
cells [27] = assay: cells
[28] = molecular target: Nuclear receptor subfamily 5 group A member 2 (Homo sapiens, UniProt O00482); assay type: functional, cell-based;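 further: HEK293T cells transfected with LRH-1 and a StAR promoter luciferase reporter; potency for inhibitors that lower LRH-1 driven reporter light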
Sequence of Nuclear receptor subfamily 5 group A member 2 (O00482 whole entry): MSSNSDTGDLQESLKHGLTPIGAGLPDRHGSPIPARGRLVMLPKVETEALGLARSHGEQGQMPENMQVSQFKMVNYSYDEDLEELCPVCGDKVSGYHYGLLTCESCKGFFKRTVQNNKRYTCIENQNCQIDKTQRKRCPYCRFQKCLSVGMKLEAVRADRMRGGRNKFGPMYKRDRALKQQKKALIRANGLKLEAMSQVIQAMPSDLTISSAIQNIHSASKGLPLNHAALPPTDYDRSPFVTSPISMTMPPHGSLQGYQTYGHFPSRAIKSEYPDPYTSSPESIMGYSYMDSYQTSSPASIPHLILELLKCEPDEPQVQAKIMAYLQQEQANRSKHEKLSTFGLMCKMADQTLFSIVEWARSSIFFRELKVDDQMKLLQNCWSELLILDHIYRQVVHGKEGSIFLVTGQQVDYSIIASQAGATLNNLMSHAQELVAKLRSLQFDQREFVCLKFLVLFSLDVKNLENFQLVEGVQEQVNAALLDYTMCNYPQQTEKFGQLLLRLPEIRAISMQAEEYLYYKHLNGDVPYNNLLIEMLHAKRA

[29] = Vero E6 cell cytotoxicity, dose response, cytotoxicity control for non-replicating M. tuberculosis project, secondary assay (AID 492998); assay type: functional, VeroE6; settings: Vero C1008

Sequence of Intestinal-type alkaline phosphatase (Mus musculus, UniProt P24822) (P24822 whole entry): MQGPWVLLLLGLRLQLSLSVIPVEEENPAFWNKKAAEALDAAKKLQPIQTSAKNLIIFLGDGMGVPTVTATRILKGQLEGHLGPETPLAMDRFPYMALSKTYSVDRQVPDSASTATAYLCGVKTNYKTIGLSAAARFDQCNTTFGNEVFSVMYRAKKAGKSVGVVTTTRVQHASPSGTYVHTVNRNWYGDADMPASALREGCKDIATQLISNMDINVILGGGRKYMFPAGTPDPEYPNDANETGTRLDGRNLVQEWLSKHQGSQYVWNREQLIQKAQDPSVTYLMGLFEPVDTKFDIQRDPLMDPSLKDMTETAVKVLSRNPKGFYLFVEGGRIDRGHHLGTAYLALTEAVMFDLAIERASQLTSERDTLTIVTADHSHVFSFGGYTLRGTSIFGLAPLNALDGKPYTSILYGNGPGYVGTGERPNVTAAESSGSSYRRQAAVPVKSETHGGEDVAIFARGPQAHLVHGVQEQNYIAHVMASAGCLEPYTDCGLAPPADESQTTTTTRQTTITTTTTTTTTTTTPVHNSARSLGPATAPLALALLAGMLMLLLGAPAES

## Cc1nc(Nc2nc3c(c(=O)[nH]2)CCC3)nc2ccccc12
[1]
  EC50: > 100 µM (inactive)
[2]
  EC50: 17.6 µM (active)
[3]
  EC50: 13.1 µM (active)
[4]
  EC50: 26.1 µM (active)

## N#CC(C(=O)NC1CCCCC1)=C1CCCCC1
[5]
  IC50: > 79.4 µM (inactive)
[6]
  IC50: > 79.4 µM (inactive)
[7]
  IC50: > 79.4 µM (inactive)

## O=C1NC(=O)N(Cc2ccccc2)C(=O)/C1=C/C=C/c1ccco1
BJ [8]
  EC50: 4.14 µM (active)
[9]
  AC50: 4.85 µM (active)
BJ [10]
  EC50: 5.74 µM (inconclusive)
HEK293 [11]
  EC50: > 20 µM (inactive)
HEK293 [12]
  IC50: 17.5 µM (active)
HEK293 [13]
  IC50: > 20 µM (inactive)
BJ [14]
  EC50: 8.18 µM (active)
HEK293 [15]
  IC50: > 20 µM (inactive)
[16]
  AC50: 1.47 µM (active)
[17]
  EC50: 5.85 µM (inconclusive)
[18]
  EC50: > 32 µM (inactive)
[19]
  EC50: > 20 µM (inactive)
HEK293 [20]
  IC50: > 20 µM (inactive)

## Cc1onc(-c2c(F)cccc2Cl)c1C(=O)ON=C(N)c1ccc([N+](=O)[O-])o1
[21]
  CC50: 21.2 µM (active)
[22]
  CC50: 17.8 µM (active)
[23]
  EC50: 12.7 µM (active)
Steroidogenic factor 1
  IC50: 0.143 µM (active)
Cells [24]
  IC50: 4.6 µM (active)
[25]
  IC50: 35.9 µM (inactive)
[26]
  EC50: < 0.1 µM (active)
Cells [27]
  EC50: 0.015 µM (active)
[28]
  IC50: 0.143 µM (active)
[29]
  CC50: > 20 µM (active)
